Measured values taken from patent US20200080091A1, “Methods for Treating Obesity of a Subject Suffering from Obesity” (NAKAJIMA Toshihiro, priority 2012, published 2020).

Legend:
synoviolin protein = target: T1, synoviolin protein (Homo sapiens, UniProt Q86TM6); conditions: disclosed in Japanese Patent Application Publication No. 2008-74753; cited from earlier work
T1 construct: MBP-Syno ΔTM-His means synoviolin in which transmembrane domain has been deleted

3T3-L1 cells = assay: adipocyte differentiation induction of 3T3-L1 cells (Oil Red O staining); type: cell-based, mice; conditions: 200 μmol siRNA introduced by Lipofectamine2000 two days before induction of differentiation; compared to a control; FIG. 4
Procedure: 3T3-L1 cells, which are preadipocytes of mice, were cultivated in Dulbecco's Modified Eagle Medium (DMEM; High Glucose) containing 10% fetal bovine serum (FBS) for 3 days after reaching confluent state. 500 μM of isobutyl-methylxanthine (IBMX), 1 μM of Dexamethasone, and 5 μg/mL of Insulin were added to induce differentiation. At the same time, 10 μM of LS-102 (ubiquitination activity inhibitor of synoviolin) or DMSO was added. After cultivation for 3 days, the medium was replaced with medium containing 4 μg/mL of Insulin and 10 μM of LS-102 or DMSO was added. After cultivation for 3 days, the medium was replaced with DMEM (High Glucose) containing 10% FBS to cultivate for 3 days. For siRNA, 200 μmol of siRNA Syno770 (sense strand consists of the following SEQ ID NO: 2) was introduced by the Lipofectamine2000 two days before induction of differentiation.
After the cultivated 3T3-L1 cells were washed with PBS(−) (Phosphate Buffered Saline solution from which magnesium and calcium had been eliminated), the cells were fixed by 10% formalin. The cells were washed with the PBS(−) to be replaced with 60% isopropanol. After staining for 20 minutes with 18 mg/ml of Oil Red 0 (solvent Isopropanol), the cells were washed with 60% isopropanol and PBS(−) and observed by a microscope.

T1 sequence (Q86TM6 246-617 limits assumed): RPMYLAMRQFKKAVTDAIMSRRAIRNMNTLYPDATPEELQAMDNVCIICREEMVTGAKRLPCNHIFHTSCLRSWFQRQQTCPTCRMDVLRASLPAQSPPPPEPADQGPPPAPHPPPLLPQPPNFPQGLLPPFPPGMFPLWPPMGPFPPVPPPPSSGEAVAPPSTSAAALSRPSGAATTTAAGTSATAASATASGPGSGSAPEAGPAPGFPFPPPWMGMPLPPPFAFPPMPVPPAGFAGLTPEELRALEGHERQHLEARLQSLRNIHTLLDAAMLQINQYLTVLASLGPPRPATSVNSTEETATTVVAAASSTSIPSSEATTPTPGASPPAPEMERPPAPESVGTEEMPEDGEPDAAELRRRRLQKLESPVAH

Molecule: CC1=CC(=O)c2c(O)cccc2C1=O [plumbagin, 2-methyl-5-hydroxy-1,4-naphthoquinone]
- self-ubiquitination of synoviolin protein (synoviolin protein): inhibit

Molecule: O=c1c(O)c(-c2ccc(O)c(O)c2)oc2cc(O)cc(O)c12 [quercetin, 2-(3,4-dihydroxyphenyl)-3,5,7-trihydroxy-4H-1-benzopyrano-4-on]
- self-ubiquitination of synoviolin protein (synoviolin protein): inhibit

Molecule: 5′ -GCUGUGACAGAUGCCAUCA-3′ [siRNA Syno770]
- differentiation of adipose cells (3T3-L1 cells): differentiation has been suppressed
